{
  "source": "patent US20170029383A1",
  "about": "“Diaminotriazine Derivatives as Herbicides” (BASF SE, priority 2014, published 2017)",
  "assay_in_all_cases": "greenhouse experiment, pre-emergence treatment",
  "details_in_all_cases": "pre-emergence method, application rate 0.500 kg/ha; scale from 0 to 100",
  "key": {"[1]": {"system": "ABUTH", "format": "in vivo, Abutilon theophrasti", "excerpt": "(§1) The seeds of the test plants were sown separately for each species. For the pre-emergence treatment, the active ingredients, which had been suspended or emulsified in water, were applied directly after sowing by means of finely distributing nozzles. The containers were irrigated gently to promote germination and growth and subsequently covered with transparent plastic hoods until the plants had rooted. This cover caused uniform germination of the test plants, unless this had been impaired by the active ingredients. Depending on the species, the plants were kept at 10-25° C. or 20-35° C., respectively. The test period extended over 2 to 4 weeks. During this time, the plants were tended, and their response to the individual treatments was evaluated. Evaluation was carried out using a scale from 0 to 100. 100 means no emergence of the plants, or complete destruction of at least the aerial moieties, and 0 means no damage, or normal course of growth. A moderate herbicidal activity is given at values of at least 60, a good herbicidal activity is given at values of at least 70, and a very good herbicidal activity is given at values of at least 85. The plants used in the greenhouse experiments were of the following species: [table]"}, "[2]": {"system": "AMARE", "format": "in vivo, Amaranthus retroflexus", "excerpt": "as §1"}, "[3]": {"system": "SETFA", "format": "in vivo, Setaria faberi", "excerpt": "as §1"}},
  "data": [
    {"smiles": "CC(C)Oc1cccc(F)c1Nc1nc(N)nc(C(C)(C)F)n1", "note": "[Example 1, N2-(2-fluoro-6-isopropoxy-phenyl)-6-(1-fluoro-1-methyl-ethyl)-1,3,5-triazine-2,4-diamine]", "values": [
      {"measurement": "herbicidal activity against ABUTH", "setting": "[1]", "result": "very good (a very good herbicidal activity is given at values of at least 85)"},
      {"measurement": "herbicidal activity against AMARE", "setting": "[2]", "result": "very good (a very good herbicidal activity is given at values of at least 85)"},
      {"measurement": "herbicidal activity against SETFA", "setting": "[3]", "result": "very good (a very good herbicidal activity is given at values of at least 85)"}
    ]}
  ]
}
